Structures can show the parent of a compound that is named as a salt.
Test system: hair cells
Assay: Hair cell toxicity assay in zebrafish (neomycin-induced hair cell death, DASPEI staining of neuromasts)
Type: in vivo
Details: Danio rerio; for Emax at 2.8 µM: maximum observed @ 2.8 μM test compound; for Emax at 25 µM: maximum observed @ 25 μM test compound; for Emax at 8.3 µM: maximum observed @ 8.3 μM test compound; for EC50: zebrafish larvae 5-7 dpf, 1 h pre-treatment, then 200 micromolar neomycin + test compound 30 min, read-out: HC50 (concentration that would produce 50% hair cell survival)
Summary of the method: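 Zebrafish larvae 5-7 dpf pre-treated 1 h with compound (0.010-25 μM), then 30 min with 200 μM neomycin plus compound. DASPEI stained 10 neuromasts per fish, scored 0-2 (total 0-20), normalised to vehicle controls as % hair cell survival. HC50 linearly interpolated if survival reached ≥50%; HCmax is maximum survival.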

[1] = 200 micromolar neomycin, read-out: Max HC Protection (HCmax, % hair cell survival)

| SMILES | Emax at 25 µM [1] [%] | EC50 [µM] | further results |
| --- | --- | --- | --- |
| CC[N+]1(C)CCc2c(sc(NC(=O)Nc3ccc(C(=O)c4ccccc4)cc3)c2C(N)=O)C1 (stereo not shown) [Example 168, 2-[3-(4-Benzoylphenyl)ureido]-3-carbamoyl-6-ethyl-6-methyl-4,5,6,7-tetrahydrothieno[2,3-c]pyridin-6-ium iodide] |  |  | Emax at 2.8 µM [1]: 20% |
| CCN1CCc2c(sc(NC(=O)Nc3cn(C)c4ccccc34)c2C(N)=O)C1 [Example 82, 6-Ethyl-2-[3-(1-methyl-1H-indol-3-yl)ureido]-4,5,6,7-tetrahydrothieno[2,3-c]pyridine-3-carboxamide hydrochloride] | 23 |  |  |
| CC(C)CN1CCc2c(sc(NC(=O)Nc3ccc(Cl)cc3)c2C(N)=O)C1 [Example 26, 2-[3-(4-Chlorophenyl)ureido]-6-isobutyl-4,5,6,7-tetrahydrothieno[2,3-c]pyridine-3-carboxamide hydrochloride] |  | 1 to 10 | Emax at 8.3 µM [1]: 68% |
| NC(=O)c1c(NC(=O)Nc2ccc(Cl)cc2)sc2c1CCN(CCCNC(=O)/C=C/c1ccccc1)C2 [Example 217, 2-{[(4-chlorophenyl)carbamoyl]amino}-6-{3-[(2E)-3-phenylprop-2-enamido]propyl}-4H,5H,6H,7H-thieno[2,3-c]pyridine-3-carboxamide] |  | < 1 | Emax at 2.8 µM [1]: 93% |
| NC(=O)c1c(NC(=O)Nc2ccc(Cl)cc2)sc2c1CCN(CCN1CCCCC1)C2 [Example 44, 2-[3-(4-chlorophenyl)ureido]-6-[2-(piperidin-1-yl)ethyl]-4,5,6,7-tetrahydrothieno[2,3-c]pyridine-3-carboxamide ditrifluoroacetate] | 98 | 1 to 10 |  |
| CN1C(C)(C)Cc2c(sc(NC(=O)Nc3ccc(Cl)cc3)c2C(N)=O)C1(C)C [Example 120, 2-[3-(4-chlorophenyl)ureido]-5,5,6,7,7-pentamethyl-4,5,6,7-tetrahydrothieno[2,3-c]pyridine-3-carboxamide hydrochloride] |  | 1 to 10 | Emax at 2.8 µM [1]: 81% |
| CC(C)(C)OC(=O)CCC[N+]1(CC2CCC2)CCc2c(sc(NC(=O)Nc3ccc(Cl)cc3)c2C(N)=O)C1 (stereo not shown) [Example 199, 6-[4-(tert-Butoxy)-4-oxobutyl]-3-carbamoyl-2-[3-(4-chlorophenyl)ureido]-6-(cyclobutylmethyl)-4,5,6,7-tetrahydrothieno[2,3-c]pyridin-6-ium trifluoroacetate] |  | < 1 | Emax at 0.3 µM (maximum observed @ 0.3 μM test compound, 200 micromolar neomycin, read-out: Max HC Protection (HCmax, % hair cell survival)): 68% |
| C[N+]1(CCCC(=O)O)CCc2c(sc(NC(=O)Nc3ccc(Cl)cc3)c2C(N)=O)C1 (stereo not shown) [Example 149, 3-Carbamoyl-6-(3-carboxypropyl)-2-[3-(4-chlorophenyl)ureido]-6-methyl-4,5,6,7-tetrahydrothieno[2,3-c]pyridin-6-ium trifluoroacetate] | 24 |  |  |
| CC(C)(O)CN1CCc2c(sc(NC(=O)Nc3ccc(Cl)cc3)c2C(N)=O)C1 [Example 119, 2-[3-(4-chlorophenyl)ureido]-6-(2-hydroxy-2-methylpropyl)-4,5,6,7-tetrahydrothieno[2,3-c]pyridine-3-carboxamide] | 65 | 1 to 10 |  |
| C[N+]12CCCCC1c1sc(NC(=O)Nc3ccc(Cl)cc3)c(C(N)=O)c1CC2 (racemic) [Example 178, (+/−)-3-Carbamoyl-2-[3-(4-chlorophenyl)ureido]-6-methyl-4,5,6,7,8,9,10,10a-octahydrothieno[2,3-a]quinolizin-6-ium chloride] | 102 | 1 to 10 |  |
| CCN1CCc2c(sc(NC(=O)Nc3ccc(Oc4ccccc4)cc3)c2C(N)=O)C1 [Example 225, 6-ethyl-2-{[(4-phenoxyphenyl)carbamoyl]amino}-4H,5H,6H,7H-thieno[2,3-c]pyridine-3-carboxamide] | 91 | 1 to 10 |  |
| CC(C)(C)C[N+]1(C)CCc2c(sc(NC(=O)Nc3ccc(Cl)c4ccccc34)c2C(N)=O)C1 (stereo not shown) [Example 183, 3-Carbamoyl-2-[3-(4-chloronaphthalen-1-yl)ureido]-6-methyl-6-neopentyl-4,5,6,7-tetrahydrothieno[2,3-c]pyridin-6-ium chloride] |  | 1 to 10 | Emax at 8.3 µM [1]: 70% |
| NC(=O)c1c(NC(=O)Nc2ccc(Cl)cc2)sc2c1CCN(CC13CC4CC(CC(C4)C1)C3)C2 [Example 49, 6-[(3r,5r,7r)-Adamantan-1-ylmethyl]-2-[3-(4-chlorophenyl)ureido]-4,5,6,7-tetrahydrothieno[2,3-c]pyridine-3-carboxamide hydrochloride] |  | 1 to 10 | Emax at 2.8 µM [1]: 64% |
| CC(C)CN1CCc2c(sc(NC(=O)Nc3ccc(Cl)c4ccccc34)c2C(N)=O)C1 [Example 39, 2-[3-(4-Chloronaphthalen-1-yl)ureido]-6-isobutyl-4,5,6,7-tetrahydrothieno[2,3-c]pyridine-3-carboxamide hydrochloride] | 56 | > 10 |  |
| C[N+]1(C2COC2)CCc2c(sc(NC(=O)Nc3ccc(Cl)cc3)c2C(N)=O)C1 (stereo not shown) [Example 142, 3-Carbamoyl-2-[3-(4-chlorophenyl)ureido]-6-methyl-6-(oxetan-3-yl)-4,5,6,7-tetrahydrothieno[2,3-c]pyridin-6-ium iodide] | 82 | 1 to 10 |  |
| CC1(CN2CCc3c(sc(NC(=O)Nc4ccc(Cl)cc4)c3C(N)=O)C2)CCC1 [Example 24, 2-[3-(4-Chlorophenyl)ureido]-6-[(1-methylcyclobutyl)methyl]-4,5,6,7-tetrahydrothieno[2,3-c]pyridine-3-carboxamide trifluoroacetate] |  | 1 to 10 | Emax at 2.8 µM [1]: 54% |
| COCCCN1CCc2c(sc(NC(=O)Nc3ccc(Cl)cc3)c2C(N)=O)C1 [Example 3, 2-[3-(4-Chlorophenyl)ureido]-6-(3-methoxypropyl)-4,5,6,7-tetrahydrothieno[2,3-c]pyridine-3-carboxamide hydrochloride] | 76 | 1 to 10 |  |
| CCN1CCc2c(sc(NC(=O)Nc3ccc(CC(=O)OC(C)(C)C)cc3)c2C(N)=O)C1 [Example 30, tert-Butyl 2-{4-[3-(3-carbamoyl-6-ethyl-4,5,6,7-tetrahydrothieno[2,3-c]pyridin-2-yl)ureido]phenyl}acetate] | 58 | 1 to 10 |  |
| C[N+]1(CCO)CCc2c(sc(NC(=O)Nc3ccc(Cl)cc3)c2C(N)=O)C1 (stereo not shown) [Example 144, 3-Carbamoyl-2-[3-(4-chlorophenyl)ureido]-6-(2-hydroxyethyl)-6-methyl-4,5,6,7-tetrahydrothieno[2,3-c]pyridin-6-ium iodide] | 78 | 1 to 10 |  |
| NC(=O)c1c(NC(=O)Nc2ccc(Cl)cc2)sc2c1CCN(CCCNC(=O)C1CC1)C2 [Example 215, 2-{[(4-chlorophenyl)carbamoyl]amino}-6-[3-(cyclopropylformamido)propyl]-4H,5H,6H,7H-thieno[2,3-c]pyridine-3-carboxamide] | 95 | 1 to 10 |  |
| NC(=O)c1c(NC(=O)Nc2ccc(Cl)cc2)sc2c1CCN(CCCC(=O)O)C2 [Example 13, 4-{3-Carbamoyl-2-[3-(4-chlorophenyl)ureido]-4,5-dihydrothieno[2,3-c]pyridin-6(7H)-yl}butanoic acid hydrochloride] |  |  | Emax at 8.3 µM [1]: 17% |
| CCN1CCc2c(sc(NC(=O)Nc3cccc(Cl)c3Cl)c2C(N)=O)C1 [Example 74, 2-[3-(2,3-Dichlorophenyl)ureido]-6-ethyl-4,5,6,7-tetrahydrothieno[2,3-c]pyridine-3-carboxamide hydrochloride] | 54 | > 10 |  |
| C[N+]1(CC23CC4CC(CC(C4)C2)C3)CCc2c(sc(NC(=O)Nc3ccc(Cl)cc3)c2C(N)=O)C1 (stereo not shown) [Example 197, 6-[(3r,5r,7r)-Adamantan-1-ylmethyl]-3-carbamoyl-2-[3-(4-chlorophenyl)ureido]-6-methyl-4,5,6,7-tetrahydrothieno[2,3-c]pyridin-6-ium chloride] |  | < 1 | Emax at 2.8 µM [1]: 93% |
| CCN1CCc2c(sc(NC(=O)Nc3ccc(C(=O)O)cc3)c2C(N)=O)C1 [Example 32, 4-[3-(3-Carbamoyl-6-ethyl-4,5,6,7-tetrahydrothieno[2,3-c]pyridin-2-yl)ureido]benzoic acid trifluoroacetate] | 19 |  |  |
| CCN1CCc2c(sc(NC(=O)Nc3ccccc3Cl)c2C(N)=O)C1 [Example 65, 2-[3-(2-Chlorophenyl)ureido]-6-ethyl-4,5,6,7-tetrahydrothieno[2,3-c]pyridine-3-carboxamide hydrochloride] |  |  | Emax at 2.8 µM [1]: 17% |
| CCN1CCc2c(sc(NC(=O)Nc3ccc(Cl)cc3)c2C(=O)NCC(F)(F)F)C1 [Example 96, 2-[3-(4-Chlorophenyl)ureido]-6-ethyl-N-(2,2,2-trifluoroethyl)-4,5,6,7-tetrahydrothieno[2,3-c]pyridine-3-carboxamide hydrochloride] |  | 1 to 10 | Emax at 8.3 µM [1]: 57% |
| CON=C1CCc2c(sc(NC(=O)Nc3ccc(Cl)cc3)c2C(N)=O)C1 (single isomer, unassigned) [Example 121, 2-[3-(4-chlorophenyl)ureido]-6-(methoxyimino)-4,5,6,7-tetrahydrobenzo[b]thiophene-3-carboxamide] |  |  | Emax at 3 µM (maximum observed @ 03 μM test compound, 200 micromolar neomycin, read-out: Max HC Protection (HCmax, % hair cell survival)): 6% |
| CC(C)(O)C[N+]1(C)CCc2c(sc(NC(=O)Nc3ccc(Cl)cc3)c2C(N)=O)C1 (stereo not shown) [Example 202, 3-Carbamoyl-2-[3-(4-chlorophenyl)ureido]-6-(2-hydroxy-2-methylpropyl)-6-methyl-4,5,6,7-tetrahydrothieno[2,3-c]pyridin-6-ium iodide] |  | < 1 | Emax at 8.3 µM [1]: 85% |

— patent US9416141B2 (University of Washington through its Center for …, priority 2012, dated 2016)
